{
  "source": "patent US8163921B2",
  "about": "“Hepatitis C virus inhibitors” (Bristol-Myers Squibb Company, priority 2008, dated 2012)",
  "key": {"[1]": {"target": "T1, HCV NS3/4A protease complex, H77 strain (Hepatitis C virus genotype 1a, UniProt P27958, C1454S/C1711G)", "T1 construct": "DNA encoding the recombinant HCV NS3/4A protease complex (amino acids 1027 to 1711) for these strains; inferred from Ni-NTA purification and the pET21b vector; made in house; host or cells: Escherichia coli BL21 (DE3)", "T1 sequence (P27958 1027-1711 C1454S/C1711G, one chain of several)": "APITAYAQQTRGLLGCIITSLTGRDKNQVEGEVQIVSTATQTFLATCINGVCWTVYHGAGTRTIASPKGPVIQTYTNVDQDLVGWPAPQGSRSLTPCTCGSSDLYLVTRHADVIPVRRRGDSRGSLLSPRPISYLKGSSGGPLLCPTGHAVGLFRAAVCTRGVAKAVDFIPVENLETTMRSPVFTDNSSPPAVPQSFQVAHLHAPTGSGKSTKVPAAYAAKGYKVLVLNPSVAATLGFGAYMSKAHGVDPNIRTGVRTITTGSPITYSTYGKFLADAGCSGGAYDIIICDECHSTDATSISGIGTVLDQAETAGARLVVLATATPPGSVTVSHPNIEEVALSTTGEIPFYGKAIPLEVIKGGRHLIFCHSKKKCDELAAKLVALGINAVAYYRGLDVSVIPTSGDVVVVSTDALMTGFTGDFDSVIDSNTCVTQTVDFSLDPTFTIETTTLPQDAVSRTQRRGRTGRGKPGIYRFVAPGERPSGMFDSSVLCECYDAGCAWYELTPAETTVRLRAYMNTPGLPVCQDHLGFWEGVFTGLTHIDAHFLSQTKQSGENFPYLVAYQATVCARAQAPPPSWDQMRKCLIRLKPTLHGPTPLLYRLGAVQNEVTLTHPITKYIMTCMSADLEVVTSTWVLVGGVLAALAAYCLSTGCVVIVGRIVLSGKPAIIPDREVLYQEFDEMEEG", "assay": "FRET peptide assay to monitor HCV NS3/4A proteolytic activity (H77 strain)", "assay_type": "biochemical, HCV genotype 1a", "details": "read-out: IC50, H177 strain", "text": "HCV NS3 protease complexes, derived from the BMS strain, H77 strain or J4L6S strain, were generated, as described below. These purified recombinant proteins were generated for use in a homogeneous assay (see below) to provide an indication of how effective compounds of the present disclosure would be in inhibiting HCV NS3 proteolytic activity.\nSerum from an HCV-infected patient was obtained from Dr. T. Wright, San Francisco Hospital. An engineered full-length cDNA (compliment deoxyribonucleic acid) template of the HCV genome (BMS strain) was constructed from DNA fragments obtained by reverse transcription-PCR (RT-PCR) of serum RNA (ribonucleic acid) and using primers selected on the basis of homology between other genotype 1a strains. From the determination of the entire genome sequence, a genotype 1a was assigned to the HCV isolate according to the classification of Simmonds et al. (See P Simmonds, K A Rose, S Graham, S W Chan, F McOmish, B C Dow, E A Follett, P L Yap and H Marsden, J. Clin. Microbiol., 31(6), 1493-1503 (1993)). […]"}, "human liver cathepsin B": {"target": "T2, human liver cathepsin B (Homo sapiens, UniProt P07858)", "T2 construct": "purchased Sigma, EMDbiosciences; host or cells: human liver (as named)", "assay": "Specificity assay, cathepsin B", "assay_type": "biochemical", "details": "read-out: Cathepsin B activity in the specificity assays", "description": "The specificities of compounds of the present disclosure were determined against a variety of serine proteases: human neutrophil elastase (HNE), porcine pancreatic elastase (PPE) and human pancreatic chymotrypsin and one cysteine protease: human liver cathepsin B. In all cases a 96-well plate format protocol using a fluorometric Amino-Methyl-Coumarin (AMC) substrate specific for each enzyme was used as described previously (PCT Patent Application No. WO 00/09543) with some modifications to the serine protease assays. All enzymes were purchased from Sigma, EMDbiosciences while the substrates were from Bachem, Sigma and EMDbiosciences.\nCompound concentrations varied from 100 to 0.4 μM depending on their potency. The enzyme assays were each initiated by addition of substrate to enzyme-inhibitor pre-incubated for 10 min at room temperature and hydrolysis to 15% conversion as measured on cytofluor.\n100 mM NaOAC (Sodium Acetate) pH 5.5, 3% DMSO, 1 mM TCEP (Tris(2-carboxyethyl)phosphine hydrochloride), 5 nM Cathepsin B (enzyme stock activated in buffer containing 20 mM TCEP before use), and 2 μM Z-FR-AMC diluted in H2O.\nThe percentage of inhibition was calculated using the formula: [1−((UVinh−UVblank)/(UVctl−UVblank))]×100\nA non-linear curve fit was applied to the inhibition-concentration data, and the 50% effective concentration (IC50) was calculated by the use of Excel XLfit software."}},
  "note": "pIC50: −log10 of the molar value.",
  "data": [
    {"molecule": "C=C[C@@H]1C[C@]1(NC(=O)[C@@H]1C[C@@H](Oc2ncc(OC)c3ccc(Cl)cc23)CN1C(=O)[C@@H](Nc1nc(-c2cccc(OC(F)(F)F)c2)cs1)C(C)(C)C)C(=O)NS(=O)(=O)C1CC1", "note": "[Example 68]", "values": [
      {"measurement": "pIC50", "setting": "[1]", "result": 8.72},
      {"measurement": "pIC50", "setting": "human liver cathepsin B", "result": 4.82}
    ]}
  ]
}
